Measured values published in patent US7449312B2, “Kit for conducting a polymerase chain reaction” (The Secretary of State for Defense in Her Britannic …, priority 2001, dated 2008).
Like-named read-outs stand apart in the source and are kept apart here.

Legend:
[1] = system: thermostable DNA polymerases (Taq, Tbr, Tth, TspNH, Pfu, 9°N exo-, VENT, Accurase); assay: PCR with different thermostable DNA polymerases, with PPi and Sac PPase; format: biochemical; details: FIGS. 7a, 7b, 8b
Text: A variety of thermostable DNA polymerases were employed in the method of the invention and some comparative assays. These included several non-proofreading Thermus sp. DNA polymerases, proof-reading hyperthermophilic archael DNA polymerases and mixes of non-proofreading and proofreading DNA polymerases.
They were all tested using the 500 bp lambda PCR as described in Example 1 (FIGS. 7a and 7b), and several using the Angiotensin assay as described in Example 4 (FIGS. 8a and 8b).

Taq DNA polymerase = Taq DNA polymerase (Thermus aquaticus, UniProt P19821); details: for suppression of PCR: results not shown
Taq DNA polymerase, sequence (P19821 whole entry): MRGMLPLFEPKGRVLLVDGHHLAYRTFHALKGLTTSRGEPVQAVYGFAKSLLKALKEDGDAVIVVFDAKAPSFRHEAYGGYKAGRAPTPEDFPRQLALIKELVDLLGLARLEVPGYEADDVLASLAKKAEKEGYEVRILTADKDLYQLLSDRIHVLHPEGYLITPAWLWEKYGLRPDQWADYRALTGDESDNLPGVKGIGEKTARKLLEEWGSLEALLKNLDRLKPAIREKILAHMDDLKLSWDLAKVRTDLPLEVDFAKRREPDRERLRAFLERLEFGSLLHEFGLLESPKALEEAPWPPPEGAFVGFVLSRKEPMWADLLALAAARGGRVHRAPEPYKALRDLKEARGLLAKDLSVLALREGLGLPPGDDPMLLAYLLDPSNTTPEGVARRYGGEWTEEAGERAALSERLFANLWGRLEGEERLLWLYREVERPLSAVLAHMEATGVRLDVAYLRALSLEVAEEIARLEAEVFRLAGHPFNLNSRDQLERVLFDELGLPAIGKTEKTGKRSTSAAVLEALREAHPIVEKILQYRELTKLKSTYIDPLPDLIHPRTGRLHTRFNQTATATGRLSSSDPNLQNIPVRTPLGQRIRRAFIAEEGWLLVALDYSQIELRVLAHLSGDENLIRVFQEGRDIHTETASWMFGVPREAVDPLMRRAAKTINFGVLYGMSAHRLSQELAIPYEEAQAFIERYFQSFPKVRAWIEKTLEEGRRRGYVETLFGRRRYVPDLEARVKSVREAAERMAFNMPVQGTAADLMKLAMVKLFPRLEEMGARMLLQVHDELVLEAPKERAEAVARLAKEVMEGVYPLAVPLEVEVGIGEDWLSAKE
Procedure: Using Taq DNA polymerase, a standard 500 bp lambda template PCR using the following reagents, was conducted in the presence of differing quantities of the inorganic pyrorphosphate, tetrasodium pyrophosphate decahydrate (PPi).
1× Reaction Buffer: 10 mM Tris. pH 8.0, 50 mM KCl.
(§1) PCR conditions for the assay were as follows:
The PPi was added such that the final concentration in the reaction mixture was 0, 1, 2, 3, 4 and 5 mM. In this Figure, the lanes correspond to the following concentrations of PPi
In order to eliminate this possibility, the procedure of Example 1 with 3 mM PPi was repeated in the presence of various concentrations of magnesium ions.
The example was repeated using concentrations of PPi of less than 1 mM.

[2] = 500 bp lambda PCR in the presence of PPi and PPase; format: biochemical; details: 0.2 u Sac PPase; 95° C. for 5 mins
Text: The 500 bp lambda PCR of Example 1 was repeated, but this time, 0.2 u of Sulfolobus acidocaldarius PPase (Sac PPase) was included in reactions containing pyrophosphate (PPi).
The results are shown in FIG. 3 where the lanes represent the following reactions: […]

[3] = system: 321 bp fragment of the human angiotensin gene; assay: Angiotensin PCR assay requiring a HotStart reaction; format: biochemical; details: up to two hours at ambient temperature; 0.2 u Sac PPase, 3 mM PPi
Text: The method of the invention was then applied to an assay system that requires a “HotStart” reaction in order to generate a PCR product of the correct size.
The assay is based around the amplification of a 321 bp fragment of the human angiotensin gene. It has been recognised that the assay will only generate the correct amplification product in the presence of betaine (EP-A-0962526—see in particular Example 8).
Without betaine a HotStart DNA polymerase generates few non-specific amplification products or no products at all whereas a non-HotStart DNA polymerase PCR generates a large number of non-specific amplification products.
The PCR conditions used in the Angiotensin assay can be summarised as follows.
as §1
The reaction was conducted using a PE9700 Instrument in the presence of 3 mM PPi and 0.2 u PPase as described in Example 3.
The effect of leaving a PCR mixture containing 0.2 u Sac PPase and 3 mM PPi at room temperature 20° C. for various lengths of time prior to conducting the Angiotensin assay, was investigated. Although Sac PPase is a thermostable enzyme, it was possible that there would be a small level of enzyme activity at ambient temperatures. This might lead to insufficient PPi in the reaction to inhibit/stop the DNA polymerase leading to primer extension and lack of “HotStart” functionality. […]

O.O.O.O.O.O.O.O.O.O.O=P([O-])([O-])OP(=O)([O-])[O-].[Na+].[Na+].[Na+].[Na+] [PPi, tetrasodium pyrophosphate decahydrate]
inhibition of DNA polymerases by PPi ([1]; 3 mM PPi, no PPase): inhibited
suppression of PCR (Taq DNA polymerase; 0.4 mM PPi): did not completely suppress the PCR
suppression of PCR (Taq DNA polymerase; 0.6 mM PPi): no PCR occurred
PCR with increasing magnesium ion concentration (Taq DNA polymerase; 3 mM PPi, Mg++ up to 10 mM final concentration, FIG. 2): does not allow PCR to occur
PCR product formation in presence of PPi (Taq DNA polymerase; PPi 1, 2, 3, 4 and 5 mM final, 1.5 mM MgCl2, FIG. 1): no PCR product was produced

B1: Sac PPase: thermostable pyrophosphatase of Sulfolobus acidocaldarius, obtainable from GeneSys Limited (protein, UniProt P50308 1-173, looked up)
Inorganic pyrophosphatase: MKLSPGKNAPDVVNVLVEIPQGSNIKYEYDDEEGVIKVDRVLYTSMNYPFNYGFIPGTLEEDGDPLDVLVITNYQLYPGSVIEVRPIGILYMKDEEGEDAKIVAVPKDKTDPSFSNIKDINDLPQATKNKIVHFFEHYKELEPGKYVKISGWGSATEAKNRIQLAIKRVSGGQ
destruction of pyrophosphate so that the PCR reaction could proceed [2]: sufficient to destroy the pyrophosphate
reversal of PPi inhibition by PPase ([1]; 3 mM PPi and 0.2u Sac PPase): inhibition could be overcome
ambient temperature digestion of PPi by PPase [3]: insufficient ambient temperature digestion of the PPi
